# In patent US20090011438A1, “Collagen VI and Cancer” (priority 2004, published 2009):
# Columns and labels:
# Type in all cases: cell-based
# [1] = system: cyclin D1; test: Cyclin D1 levels by western blot; settings: MCF-7 cells, treated five hours, vs vehicle
# Method: FIG. 4 is graphs and a photograph showing that collagen VI stabilizes β-catenin and cyclin D1. […] A TCF/LEF luciferase reporter construct was transfected into MCF-7 cells and luciferase activity was analyzed after treatment either were vehicle (PBS; black bars), collagen VI (30 μg/ml; white bars) or collagen 1 (30 μg/ml; gray bars) in DME-BSA. […] The serum free medium used in the chase contained vehicle, collagen VI (30 μg/ml) or collagen 1 (30 μg/ml). After each time point, immunoprecipitations were performed for β-catenin and analyzed by SDS-PAGE followed by quantitation of β-catenin at each time point. […] Cells were then lysed and analyzed for cyclin D1 by western blot analysis. […] Panel D is a photograph of a western blot showing that collagen VI acts in part through NG2 in MCF-7 cells to stabilize cyclin D1. […] Results are shown as the MEAN±SEM in all cases.
# Immunoblotting. Separation of proteins by sodium dodecyl sulfate (SDS)-poly acrylamide gel electrophoresis (PAGE) fluorography, and immunoblotting were performed as previously described (Scherer et al., 1994). […]
# Collagen VI increases cyclin D1 protein stability through NG2/CSPG. […] MCF-7 cells pretreated with the αNG2/CSPG antibody were exposed to collagen VI protein, and cyclin D1 levels were monitored. […]
# [2] = system: Tcf/Lef; test: TOP FLASH (Tcf/Lef) reporter luciferase assay; settings: MCF-7 cells, 30 μg/ml, 12 hours, vs vehicle
# Method: (§1) FIG. 4 is graphs and a photograph showing that collagen VI stabilizes β-catenin and cyclin D1. […] A TCF/LEF luciferase reporter construct was transfected into MCF-7 cells and luciferase activity was analyzed after treatment either were vehicle (PBS; black bars), collagen VI (30 μg/ml; white bars) or collagen 1 (30 μg/ml; gray bars) in DME-BSA. […] The serum free medium used in the chase contained vehicle, collagen VI (30 μg/ml) or collagen 1 (30 μg/ml). After each time point, immunoprecipitations were performed for β-catenin and analyzed by SDS-PAGE followed by quantitation of β-catenin at each time point. […] MCF-7 cells were exposed for 3 hours to vehicle, human collagen VI (30 μg/ml) or collagen I (30 μg/ml). Cells were then lysed and analyzed for cyclin D1 by western blot analysis. […] Panel D is a photograph of a western blot showing that collagen VI acts in part through NG2 in MCF-7 cells to stabilize cyclin D1. […] Results are shown as the MEAN±SEM in all cases.
# Luciferase Assays. […] Two days prior to the luciferase readout, cells were transiently transfected with the TOPFLASH (contains 4 Tcf/Lef binding elements) luciferase promoter construct as well as a thymidine kinase driven renilla luciferase construct as a transfection control vector (Promega, Madison, Wis.) (Albanese et al., 2003). […]
# [3] = system: β-catenin; test: Metabolic labeling pulse/chase of β-catenin; settings: MCF-7 cells, 30 μg/ml, chase 30 min to 2 hrs
# Method: as §1
# Metabolic Labeling for β-catenin. MCF-7 cells, seeded in 6-well plates, were treated in methionine/cysteine deficient DMEM for 1 hour. […]
# Collagen VI prevents degradation of endogenous β-catenin in MCF-7 cells. […] To test this, β-catenin levels were monitored over the course of several hours after a pulse/chase reaction. […]
substance,measurement,setting,value
collagen I: Human collagen I obtained from Collaborative Biomedical Products; comparison protein,cyclin D1 levels,[1],no significant change
same,induction of Tcf/Lef activity,[2],did not activate
same,degradation of 35S-labeled β-catenin,[3],marginal stabilization
